Patent US5618675A, “Methods and compositions for detecting lipopolysaccharides using CAP18 fragments” (Panorama Research, Inc., dated 1997)

Assays:
[1] = test system: E. coli 09:K39 K^+ strain; assay: Antibacterial CFU assay; conditions: FIG. 6H
ddY mice = assay: Tissue factor lethality model; assay type: in vivo; conditions: for Survival (%) / No. of Mice (dead/total) / Survival time: Tissue factor 1.0 mg/mouse IV; for Survival (%): control 0; for No. of Mice (dead/total): control 7/7; for Survival time: control 187 ± 70
Description: Reference tissue factor (Simplastin, 1 mg/mouse) was IV injected into ddY mice (male, 20-week-old, 38-45 g) incubated with or without peptide.
The anticoagulant activity of the RNIP peptides was studied in an acute animal model. Direct injection of tissue factor IV (Simplastin, 1 mg/mouse) produces acute intravascular coagulation and death within three minutes.
^a Tissue factor (Simplastin, 10 mg/ml was mixed with equal volume of
synthetic peptide 100 μg/ml or 50 μg/ml and 0.2 ml of the mixture
injected IV. ddY mice (20 weeks, 38-45 gm).

Streptococcus pneumoniae = assay: Bacterial proliferation, 3H-thymidine incorporation; assay type: cell-based
Description: Bacteria were grown in trypticase broth overnight.
To corroborate the anti-bacterial activity shown in the CFU assays, inhibition of proliferation of bacteria was tested directly using a ^3 H-thymidine incorporation assay. […] In summary although there is some strain to strain variation in the IC50, all of the Gram-negativestrains tested in two different types of assays were sensitive to these anti-microbial peptides.

[2] = test system: E. coli 09:K39 K^- strain; assay: Antibacterial CFU assay; conditions: FIG. 6H
E. coli = assay: Antibacterial CFU assay; conditions: read-out: IC50, inhibition of CFU; FIG. 6I
RAW 264.7 cells = assay: Reversal of LPS-induced inhibition of RAW 264.7 cell proliferation; assay type: cell-based, murine; conditions: 5 ng/ml of LPS; FIG. 8
Description: When LPS is added to RAW 264.7 cells it causes a dose-dependent inhibition of proliferation with differentiation of the cells into a macrophage phenotype.

human mononuclear cells = assay: LPS-induced tissue factor by human mononuclear cells; assay type: cell-based; conditions: for Δ Units (%): LPS alone 100, 960 min
Description: Human mononuclear cells were separated from citrated peripheral blood by centrifugation over Sodium-metrizoate-Ficoll (lymphocyte Separation Medium, Japan Antibody Institute, Gumma). The resulting mixed mononuclear cell suspension was washed 3 times with RPMI 1640 media. Cell suspension (1×10^6 /ml) was stimulated with LPS for 16 to 18 hr.
Veronal buffered saline (VBS) was added to the cell pellet, lysed by 3 cycles of freeze/thaw and sonicated for 10 sec with a hand-held sonicator microbe (Handy Sonic, model UR-20P, Tomy Seiko LTD, Tokyo). Tissue factor activity was tested in modified unactivated partial thromboplastin time (7). One tenth ml of cell lysate (1×10^6 /ml) was preincubated with mouse plasma at 37° C. for 3 min. Then 0.1 ml of 25 mM-CaCl2 which contains phospholipid was added to the mixture and clotting time was measured using a fibrometer (Bio Quest Division, Becton Dickinson, Cokeysville, USA). A standard curve obtained from serial two-fold dilutions of rabbit brain thromboplastic (Simplastin, Ono Pharmaceutical Co.) was used to transpose tissue factor activity into arbitrary tissue factor units (1 μg/ml) suspension of rabbit brain was assigned a value of 1,000 units).
The mean tissue factor units+standard error was determined from three to four samples. Student's t test for unpair data was used to determine the statistically significant differences. A two-tailed P value of <0.05 was considered significant.
S. minnesota SmoothLPS (2 μg/ml) was preincubated with equal volume of
each LPSbinding protein (28HA) at 37° C. for 45 minutes, and the
mixture was added to the cells and cultured for 16 hours.

human monocytes = assay: TNF release from LPS and IFNγ stimulated monocytes; assay type: cell-based
[3] = test system: thioglycolate elected murine peritoneal exudate cells; assay: RNI generation by thioglycolate-elicited peritoneal exudate cells; assay type: cell-based; conditions: for RNI (reactive nitrogen intermediate): RNIP 50 nm
Description: From the sequence of the CAP18 cDNA, it was apparent that the putative N-terminal peptide of CAP18 was in fact an internal fragment of the CAP18 protein. We therefore tried to reconfirm the original protein sequence. Neutrophil-derived heparin bound cationic proteins were prepared as described above and applied to a C18 reverse phase HPLC (FIG. 1). We sequenced the major peaks. Peaks at fractions 14.5 and 15.2 correspond to defensins MCP1 and MCP2 (Territo et al. (1989) J. Clin. Invest. 84:2017-2019), respectively. Fraction 25.8 is macrophage related protein 14 (MRP14) (Odink et al. (1987) Nature 330:80-82). The fraction at 20.3 minutes corresponds to a fragment of CAP18 of approximately 4-5 kD. […] The murine macrophage cell line RAW 264.7 (obtained from ATCC) and thioglycolate-elicited murine peritoneal exudate cells are used to produce RNI. Cells are cultured at 1×10^6 /ml. in RPMI-1640 +2.5% FCS in 24 well plates in the presence or absence of different concentrations of LPS or murine rlFNγ. After 24 hr. incubation at 37° C. the cell free supernatant is collected and tested for the presence of RNI. Accumulation of nitrite in the medium is measured by a colorimetric assay based on the Griess reaction (Green et al. (1982) Anal. Biochem. 126:11) using sodium nitrite as standards. Sample (50 μl) is mixed with 50 μl of Griess reagent (1% sulfanilamide, 0.1% naphthalene diamine dihydrochloride, 2.5% H3 PO4) and after 10 min. at room temperature absorbance is read at 570 nm.

[4] = first experiment, LPS 0.1 μg/ml
[5] = second experiment, LPS 0.1 μg/ml

RNIP: reactive nitrogen inhibitory protein, amino acids 135-171 of SEQ ID NO:4 (rabbit CAP18 C-terminus); purified from granulocytes or synthetic (#197) (GLRKRLRKFRNKIKEKLKKIGQKIQGLLPKLAPRTDY)
anti-bacterial IC50 [1]: 0.14 µg/mL
IC50 ([1]; read-out: anti-bacterial IC50): 20 nM
Survival (%) (ddY mice; Peptide #197 5 μg/mouse): 43%
No. of Mice (dead/total) (ddY mice; Peptide #197 5 μg/mouse): 4/7
Survival time (ddY mice; Peptide #197 5 μg/mouse): 228 ± 48 s
Survival (%) (ddY mice; Peptide #197 10 μg/mouse, p < 0.05): 57%
No. of Mice (dead/total) (ddY mice; Peptide #197 10 μg/mouse): 3/7
Survival time (ddY mice; Peptide #197 10 μg/mouse): 305 s
reduction of mortality (ddY mice; tissue factor IV 1 mg/mouse): 57%
Percent inhibition of proliferation (Streptococcus pneumoniae; RNIP 1.25 μg/ml): 47%
Percent inhibition of proliferation (Streptococcus pneumoniae; RNIP 2.5 μg/ml): 68%
Percent inhibition of proliferation (Streptococcus pneumoniae; RNIP 5.0 μg/ml): 93%
Percent inhibition of proliferation (Streptococcus pneumoniae; RNIP 6 μg/ml (so in the source)): 31%
anti-bacterial IC50 [2]: 0.68 µg/mL
IC50 ([2]; read-out: anti-bacterial IC50): 110 nM
IC50 (E. coli): 80 nM
effect on LPS-induced inhibition of proliferation (RAW 264.7 cells): reverses the inhibition of proliferation
Inhibition (%) (human mononuclear cells; [4]): 51%
Tissue Factor, figure in parentheses (relative to unstimulated = 1.0) (human mononuclear cells; first experiment, LPS 0.1 μg/ml, LPS alone 16.6): 9.0
Δ Units (%) (human mononuclear cells; [4]): 49%
Δ Units (human mononuclear cells; first experiment, LPS 0.1 μg/ml, LPS alone 17118): 8342
Tissue Factor (human mononuclear cells; first experiment, LPS 0.1 μg/ml, LPS alone 18214 ± 4192, RNIP 2 HA units, CAP-18 1 HA unit): 9438 ± 293 Units × 10^3 /3.6 × 10^4 cells
Inhibition (%) (human mononuclear cells; [5]): 41%
Tissue Factor, figure in parentheses (relative to unstimulated = 1.0) (human mononuclear cells; second experiment, LPS 0.1 μg/ml, LPS alone 14.7): 9.0
Δ Units (%) (human mononuclear cells; [5]): 59%
Δ Units (human mononuclear cells; second experiment, LPS 0.1 μg/ml, LPS alone 6726): 3950
Tissue Factor (human mononuclear cells; second experiment, LPS 0.1 μg/ml, LPS alone 7218 ± 264, HA units HP-1 4, HP-2 2, RNIP 2, CAP-18 1): 4442 ± 982 Units × 10^3 /3.6 × 10^4 cells
Tissue Factor, figure in parentheses (relative to unstimulated = 1.0) (human mononuclear cells; second experiment, no LPS): 1.3
Δ Units (human mononuclear cells; second experiment, no LPS): 144
Tissue Factor (human mononuclear cells; second experiment, no LPS, unstimulated 492 ± 75): 636 ± 141 Units × 10^3 /3.6 × 10^4 cells
TNF (human monocytes; Human IFNγ (100 U), (1:1), stimulus alone 2.0): 0.27 ng/mL
TNF (human monocytes; Human IFNγ (100 U), (1:10), stimulus alone 2.0): 0.35 ng/mL
TNF (human monocytes; Human IFNγ (100 U), (1:100), stimulus alone 2.0): 0.35 ng/mL
TNF (human monocytes; LPS (10 ng/ml), (1:1), stimulus alone 1.0): 0.12 ng/mL
TNF (human monocytes; LPS (10 ng/ml), (1:10), stimulus alone 1.0): 0.34 ng/mL
TNF (human monocytes; LPS (10 ng/ml), (1:100), stimulus alone 1.0): 0.23 ng/mL
RNI (reactive nitrogen intermediate) ([3]; IFN 500 U/ml, without RNIP 4.0 ± 0.8): 1.1 µM
RNI (reactive nitrogen intermediate) ([3]; LPS + IFNγ 1 ng + 500 U/ml, without RNIP 26 ± 0.6): 14 ± 0.7 µM
IC50 ([3]; read-out: IC50 for inhibition of gamma interferon stimulated nitrogen radical release): < 50 nM
